ChEMBL document CHEMBL6083286, “Discovery of ERD-12310A as an Exceptionally Potent and Orally Efficacious PROTAC Degrader of Estrogen Receptor α (ERα)” (J Med Chem, 2024)
Active and inactive are the calls of the source. The rule behind the calls is not given here.

Tests used:
[1] = biological target: T1, Protein cereblon/Estrogen receptor (Homo sapiens, UniProt P03372+Q96SW2); test: PROTAC activity at CRBN/ERalpha in human MCF7 cells assessed as effect on GSPT1 level at 100 nM measured for 5 hrs by Western blot analysis; type: cell-based
Target sequence in this assay (P03372 whole entry, looked up): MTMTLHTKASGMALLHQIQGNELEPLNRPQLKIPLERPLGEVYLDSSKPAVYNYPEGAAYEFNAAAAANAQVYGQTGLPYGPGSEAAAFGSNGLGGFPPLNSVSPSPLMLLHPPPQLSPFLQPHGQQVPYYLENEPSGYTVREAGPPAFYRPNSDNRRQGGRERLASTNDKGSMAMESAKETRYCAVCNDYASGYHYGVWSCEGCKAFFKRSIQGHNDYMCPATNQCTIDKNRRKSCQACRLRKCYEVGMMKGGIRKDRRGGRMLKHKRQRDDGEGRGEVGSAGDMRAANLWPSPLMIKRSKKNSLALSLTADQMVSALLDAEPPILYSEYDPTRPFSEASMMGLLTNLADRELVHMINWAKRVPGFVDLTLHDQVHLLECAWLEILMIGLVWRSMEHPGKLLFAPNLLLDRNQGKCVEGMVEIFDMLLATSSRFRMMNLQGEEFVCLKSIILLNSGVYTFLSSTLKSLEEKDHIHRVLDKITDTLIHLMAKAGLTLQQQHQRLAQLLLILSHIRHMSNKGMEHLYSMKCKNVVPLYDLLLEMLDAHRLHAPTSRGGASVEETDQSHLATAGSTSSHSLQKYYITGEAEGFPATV
Target sequence in this assay (Q96SW2 whole entry, looked up): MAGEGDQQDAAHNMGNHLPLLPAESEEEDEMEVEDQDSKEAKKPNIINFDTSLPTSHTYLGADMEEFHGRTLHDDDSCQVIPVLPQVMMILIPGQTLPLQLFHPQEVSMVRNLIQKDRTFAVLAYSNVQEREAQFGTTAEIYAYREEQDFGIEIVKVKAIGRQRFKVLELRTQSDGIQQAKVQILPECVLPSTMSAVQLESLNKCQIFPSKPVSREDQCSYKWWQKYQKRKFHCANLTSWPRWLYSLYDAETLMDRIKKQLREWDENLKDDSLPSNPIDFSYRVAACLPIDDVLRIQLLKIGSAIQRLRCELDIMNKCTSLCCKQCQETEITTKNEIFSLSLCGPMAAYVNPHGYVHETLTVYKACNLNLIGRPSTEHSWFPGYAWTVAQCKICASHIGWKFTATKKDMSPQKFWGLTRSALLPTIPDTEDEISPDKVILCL

[2] = Drug concentration in female Sprague-Dawley rat plasma at 3 mg/kg, po measured at 6 hrs by LC-MS analysis; type: ADME, organism-based
[3] = biological target: T1, Protein cereblon/Estrogen receptor; test: PROTAC activity at CRBN/ERalpha in human MCF7 cells assessed as reduction in ERalpha protein level measured after 12 hrs by Western blot analysis relative to control; type: cell-based
Target sequence in this assay (P03372 whole entry, looked up): as the sequence (P03372 whole entry, looked up) above
Target sequence in this assay (Q96SW2 whole entry, looked up): as the sequence (Q96SW2 whole entry, looked up) above

[4] = Drug concentration in female Sprague-Dawley rat plasma at 3 mg/kg, po measured at 1 hr by LC-MS analysis; type: ADME, organism-based
[5] = Drug concentration in female Sprague-Dawley rat plasma at 3 mg/kg, po measured at 24 hrs by LC-MS analysis; type: ADME, organism-based
[6] = Metabolic stability mouse liver microsome assessed as half life; type: ADME; conditions: microsomes
[7] = Metabolic stability rat liver microsome assessed as half life; type: ADME; conditions: microsomes
[8] = Metabolic stability human liver microsome assessed as half life; type: ADME; conditions: microsomes
[9] = Drug concentration in female Sprague-Dawley rat plasma at 3 mg/kg, po measured at 3 hrs by LC-MS analysis; type: ADME, organism-based
[10] = biological target: T1, Protein cereblon/Estrogen receptor; test: PROTAC activity at CRBN/ERalpha in human MCF7 cells assessed as reduction in ERalpha protein level measured after 12 hrs by Western blot analysis; type: cell-based
Target sequence in this assay (P03372 whole entry): as the sequence (P03372 whole entry, looked up) above
Target sequence in this assay (Q96SW2 whole entry): as the sequence (Q96SW2 whole entry, looked up) above

Activity [1] | SMILES | concentration at 6 h [2] | Emax [3] | concentration at 1 h [4] | concentration at 24 h [5] | t1/2 [6] | t1/2 [7] | t1/2 [8] | concentration at 3 h [9] | DC50 [10]
Active | O=C1CCC(N2Cc3c(CCCCCNC(=O)[C@@H]4NC5(CCCCC5)[C@@]5(C(=O)Nc6cc(Cl)ccc65)[C@H]4c4cccc(Cl)c4F)cccc3C2=O)C(=O)N1 (stereo not given in full) | – | – | – | – | – | – | – | – | –
– | O=C1CC[C@H](N2Cc3c(ccc4c3OCC43CCN(CC(=O)N4CC5(CCN(c6ccc([C@@H]7c8ccc(O)cc8CC[C@@H]7c7ccccc7)cc6)CC5)C4)CC3)C2=O)C(=O)N1 | < 5 ng/mL | 102% | 9 ng/mL | < 5 ng/mL | 35 min | 49 min | > 60 min | < 5 ng/mL | 0.0341 nM
